Measured values from patent US11814367B2, “Inhibitors of glycogen synthase 1 (GYS1) and methods of use thereof” (Maze Therapeutics, Inc., priority 2021, dated 2023).
Values belong to the molecule of their own block, whether it stands above or below them.

What was measured:
[1] = biological target: hGYS1 enzyme (recombinant hGYS1/GN1 protein) (Homo sapiens (Human), UniProt P13807); test: GYS1 coupled enzyme assay (PK/LDH); format: biochemical; conditions: hGYS1/GN1 50 nM, UDP-Glucose 0.8 mM, G6P 1 mM; geometric mean of at least 2 runs
Chain of hGYS1 enzyme (recombinant hGYS1/GN1 protein) (P13807 whole entry): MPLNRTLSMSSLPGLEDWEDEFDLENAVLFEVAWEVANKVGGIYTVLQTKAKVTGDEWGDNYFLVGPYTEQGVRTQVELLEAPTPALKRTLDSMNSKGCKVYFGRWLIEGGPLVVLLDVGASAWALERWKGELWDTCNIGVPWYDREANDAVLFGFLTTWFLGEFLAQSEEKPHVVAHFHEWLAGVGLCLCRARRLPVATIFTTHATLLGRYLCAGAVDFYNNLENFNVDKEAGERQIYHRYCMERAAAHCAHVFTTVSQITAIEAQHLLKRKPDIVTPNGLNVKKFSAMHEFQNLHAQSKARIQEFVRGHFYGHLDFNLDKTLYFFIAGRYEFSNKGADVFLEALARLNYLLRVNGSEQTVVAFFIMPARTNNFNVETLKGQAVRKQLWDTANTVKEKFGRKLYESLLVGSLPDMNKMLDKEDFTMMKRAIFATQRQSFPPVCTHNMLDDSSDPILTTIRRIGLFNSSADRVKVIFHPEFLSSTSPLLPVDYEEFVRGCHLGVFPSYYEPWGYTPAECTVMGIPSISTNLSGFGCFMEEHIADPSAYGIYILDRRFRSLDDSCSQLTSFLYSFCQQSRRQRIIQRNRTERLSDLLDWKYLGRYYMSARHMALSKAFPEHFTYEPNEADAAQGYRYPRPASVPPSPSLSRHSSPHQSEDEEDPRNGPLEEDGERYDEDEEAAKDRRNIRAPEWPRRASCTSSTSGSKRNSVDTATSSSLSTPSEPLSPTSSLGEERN
Chain of hGYS1 enzyme (recombinant hGYS1/GN1 protein) (P46976 whole entry partner): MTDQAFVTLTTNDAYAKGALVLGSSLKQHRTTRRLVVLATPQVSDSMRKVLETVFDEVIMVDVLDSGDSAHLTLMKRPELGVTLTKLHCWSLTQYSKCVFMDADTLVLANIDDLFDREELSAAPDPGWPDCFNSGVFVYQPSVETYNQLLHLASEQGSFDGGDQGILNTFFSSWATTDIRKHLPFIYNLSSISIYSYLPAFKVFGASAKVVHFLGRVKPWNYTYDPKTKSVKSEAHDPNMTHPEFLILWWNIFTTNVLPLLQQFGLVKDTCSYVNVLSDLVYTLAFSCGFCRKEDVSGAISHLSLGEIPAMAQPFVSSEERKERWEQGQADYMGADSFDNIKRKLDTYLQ

[2] = system: hGYS1 enzyme / glycogen synthesis in HeLa cells; test: GYS1 cell based assay (glycogen synthesis, Glucose-glo); set-up: species or system human; conditions: Homo sapiens, HeLa, 24 h, 24 h incubation, 20 mM glucose, geometric mean of at least 2 runs
How it was run: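 HeLa cells starved 24 h in medium containing only 1× Glutamax were plated onto compound in medium with 20 mM glucose (1% DMSO final) for 24 h, 37 °C, 5% CO2. Acid lysates were Tris-quenched, glucoamylase-digested (pH 5.3, 1 h, 37 °C) and read by Glucose-glo luminescence. IC50 came from Hill fits, as geometric mean of ≥2 runs.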

[3] = biological target: hGYS2 enzyme (recombinant hGYS2/GN1 protein) (Homo sapiens (Human), UniProt P54840); test: GYS2 coupled enzyme assay (PK/LDH); format: biochemical; conditions: geometric mean of at least 2 assay runs on separate days, read-out: Avg_IC50
Chain of hGYS2 enzyme (recombinant hGYS2/GN1 protein) (P54840 whole entry): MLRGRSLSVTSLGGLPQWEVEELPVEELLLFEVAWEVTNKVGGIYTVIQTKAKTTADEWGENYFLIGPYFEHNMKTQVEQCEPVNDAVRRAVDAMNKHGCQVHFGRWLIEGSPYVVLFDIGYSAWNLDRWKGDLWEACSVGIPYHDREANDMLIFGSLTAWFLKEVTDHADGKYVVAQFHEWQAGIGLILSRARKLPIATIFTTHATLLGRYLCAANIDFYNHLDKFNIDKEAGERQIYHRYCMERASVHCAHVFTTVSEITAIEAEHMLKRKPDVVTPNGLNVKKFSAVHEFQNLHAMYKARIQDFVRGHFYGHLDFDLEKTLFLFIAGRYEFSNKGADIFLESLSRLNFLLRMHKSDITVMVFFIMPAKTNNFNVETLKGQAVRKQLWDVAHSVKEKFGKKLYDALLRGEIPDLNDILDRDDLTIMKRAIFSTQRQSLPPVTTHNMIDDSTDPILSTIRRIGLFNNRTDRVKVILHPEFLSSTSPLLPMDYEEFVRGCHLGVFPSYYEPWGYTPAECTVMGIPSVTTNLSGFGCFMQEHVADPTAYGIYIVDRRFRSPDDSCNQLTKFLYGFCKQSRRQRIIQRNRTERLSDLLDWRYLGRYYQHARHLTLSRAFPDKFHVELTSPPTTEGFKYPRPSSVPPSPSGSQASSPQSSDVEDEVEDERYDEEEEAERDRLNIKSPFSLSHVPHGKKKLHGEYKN
Chain of hGYS2 enzyme (recombinant hGYS2/GN1 protein) (P46976 whole entry partner): as the sequence (P46976 whole entry partner) above
How it was run: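 IC50 came from Hill fits of duplicate percent inhibition, based on control-normalized slopes of 340 nm NADH decline read each minute for 10 min. The reaction held recombinant hGYS2/GN1 (200 nM) with glycogen, UDP-glucose, G6P and PEP, plus PK/LDH coupling at pH 7.5 and 2.5% DMSO.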

IC50 [1]: 20 nM | IC50 [2]: 350 nM | IC50 [3]: > 100000 nM
Compound: O=C(N[C@@H](c1ccccc1)c1ccc(C2CC(F)(F)C2)c(F)n1)[C@@H]1C[C@@H](F)CN1C(=O)Cc1ncco1 [Compound 505, (2S,4R)-N-[(S)-[5-(3,3-difluorocyclobutyl)-6-fluoropyridin-2-yl](phenyl)methyl]-4-fluoro-1-[2-(1,3-oxazol-2-yl)acetyl]pyrrolidine-2-carboxamide]

IC50 [1]: 21 nM | IC50 [2]: 310 nM | IC50 [3]: > 100000 nM
Compound: O=C(N[C@@H](c1ccccc1)c1ccc(C2CC(F)(F)C2)c(F)n1)[C@@H]1C[C@@H](F)CN1C(=O)Cc1cnn[nH]1 [Compound 508, (2S,4R)-N-[(S)-[5-(3,3-difluorocyclobutyl)-6-fluoropyridin-2-yl](phenyl)methyl]-4-fluoro-1-[2-(1H-1,2,3-triazol-5-yl)acetyl]pyrrolidine-2-carboxamide]

IC50 [1]: 8 nM | IC50 [2]: 180 nM | IC50 [3]: > 100000 nM
Compound: Cc1cnc(CC(=O)N2C[C@H](F)C[C@H]2C(=O)N[C@@H](c2ccccc2)c2ccc(C3CC(F)(F)C3)c(F)n2)o1 [Compound 509, (2S,4R)-N-[(S)-[5-(3,3-difluorocyclobutyl)-6-fluoropyridin-2-yl](phenyl)methyl]-4-fluoro-1-[2-(5-methyl-1,3-oxazol-2-yl)acetyl]pyrrolidine-2-carboxamide]

IC50 [1]: 12 nM | IC50 [2]: 260 nM | IC50 [3]: > 100000 nM
Compound: Cc1coc(CC(=O)N2C[C@H](F)C[C@H]2C(=O)N[C@@H](c2ccccc2)c2ccc(C3CC(F)(F)C3)c(F)n2)n1 [Compound 511, (2S,4R)-N-[(S)-[5-(3,3-difluorocyclobutyl)-6-fluoropyridin-2-yl](phenyl)methyl]-4-fluoro-1-[2-(4-methyl-1,3-oxazol-2-yl)acetyl]pyrrolidine-2-carboxamide]

IC50 [1]: 7 nM | IC50 [2]: 770 nM | IC50 [3]: > 100000 nM
Compound: O=C(N[C@@H](c1ccccc1)c1ccc(C2CC(F)(F)C2)c(F)n1)[C@@H]1C[C@@H](F)CN1C(=O)Cn1ccc(=O)[nH]c1=O [Compound 514, (2S,4R)-N-[(S)-[5-(3,3-difluorocyclobutyl)-6-fluoropyridin-2-yl](phenyl)methyl]-1-[2-(2,4-dioxo-1,2,3,4-tetrahydropyrimidin-1-yl)acetyl]-4-fluoropyrrolidine-2-carboxamide]

IC50 [1]: 8 nM | IC50 [2]: 710 nM | IC50 [3]: > 100000 nM
Compound: O=C(N[C@@H](c1ccccc1)c1ccc(C2CC(F)(F)C2)c(F)n1)[C@@H]1C[C@@H](F)CN1C(=O)Cc1ccc(=O)[nH]c1 [Compound 516, (2S,4R)-N-[(S)-[5-(3,3-difluorocyclobutyl)-6-fluoropyridin-2-yl](phenyl)methyl]-4-fluoro-1-[2-(6-oxo-1,6-dihydropyridin-3-yl)acetyl]pyrrolidine-2-carboxamide]

IC50 [1]: 8 nM | IC50 [2]: 540 nM | IC50 [3]: > 100000 nM
Compound: O=C(N[C@@H](c1ccccc1)c1ccc(C2CC(F)(F)C2)c(F)n1)[C@@H]1C[C@@H](F)CN1C(=O)Cc1ccc[nH]c1=O [Compound 517, (2S,4R)-N-[(S)-[5-(3,3-difluorocyclobutyl)-6-fluoropyridin-2-yl](phenyl)methyl]-4-fluoro-1-[2-(2-oxo-1,2-dihydropyridin-3-yl)acetyl]pyrrolidine-2-carboxamide]

IC50 [1]: 8 nM | IC50 [2]: 220 nM | IC50 [3]: > 100000 nM
Compound: CCn1cc(CC(=O)N2C[C@H](F)C[C@H]2C(=O)N[C@@H](c2ccccc2)c2ccc(C3CC(F)(F)C3)c(F)n2)ccc1=O [Compound 519, (2S,4R)-N-[(S)-[5-(3,3-difluorocyclobutyl)-6-fluoropyridin-2-yl](phenyl)methyl]-1-[2-(1-ethyl-6-oxo-1,6-dihydropyridin-3-yl)acetyl]-4-fluoropyrrolidine-2-carboxamide]

IC50 [1]: 557 nM | IC50 [2]: > 30000 nM | IC50 [3]: > 100000 nM
Compound: O=C(N[C@H](c1ccccc1)c1ccc(C2CC(F)(F)C2)c(F)n1)[C@@H]1C[C@@H](F)CN1C(=O)Cc1ccc(=O)[nH]c1 [Compound 520, (2S,4R)-N-[(R)-[5-(3,3-difluorocyclobutyl)-6-fluoropyridin-2-yl](phenyl)methyl]-4-fluoro-1-[2-(6-oxo-1,6-dihydropyridin-3-yl)acetyl]pyrrolidine-2-carboxamide]

IC50 [1]: 5 nM | IC50 [2]: 450 nM | IC50 [3]: > 100000 nM
Compound: Cc1cc(CC(=O)N2C[C@H](F)C[C@H]2C(=O)N[C@@H](c2ccccc2)c2ccc(C3CC(F)(F)C3)c(F)n2)c[nH]c1=O [Compound 522, (2S,4R)-N-[(S)-[5-(3,3-difluorocyclobutyl)-6-fluoropyridin-2-yl](phenyl)methyl]-4-fluoro-1-[2-(5-methyl-6-oxo-1,6-dihydropyridin-3-yl)acetyl]pyrrolidine-2-carboxamide]

The remaining lines, values behind:

Compound: Cc1cn(CC(=O)N2C[C@H](F)C[C@H]2C(=O)N[C@@H](c2ccccc2)c2ccc(C3CC(F)(F)C3)c(F)n2)c(=O)[nH]c1=O [Compound 506, (2S,4R)-N-[(S)-[5-(3,3-difluorocyclobutyl)-6-fluoropyridin-2-yl](phenyl)methyl]-4-fluoro-1-[2-(5-methyl-2,4-dioxo-1,2,3,4-tetrahydropyrimidin-1-yl)acetyl] pyrrolidine-2-carboxamide]
IC50 [1]: 4 nM | IC50 [2]: 370 nM | IC50 [3]: > 100000 nM

Compound: CN(C)C(=O)NCC(=O)N1C[C@H](F)C[C@H]1C(=O)N[C@@H](c1ccccc1)c1ccc(C2CC(F)(F)C2)c(F)n1 [Compound 507, (2S,4R)-N-[(S)-[5-(3,3-difluorocyclobutyl)-6-fluoropyridin-2-yl](phenyl)methyl]-1-{2-[(dimethylcarbamoyl)amino]acetyl}-4-fluoropyrrolidine-2-carboxamide]
IC50 [1]: 22 nM | IC50 [2]: 260 nM | IC50 [3]: > 100000 nM

Compound: O=C(N[C@@H](c1ccccc1)c1ccc(C2CC(F)(F)C2)c(F)n1)[C@@H]1C[C@@H](F)CN1C(=O)Cc1[nH]nnc1C(F)(F)F [Compound 510, (2S,4R)-N-[(S)-[5-(3,3-difluorocyclobutyl)-6-fluoropyridin-2-yl](phenyl)methyl]-4-fluoro-1-{2-[4-(trifluoromethyl)-1H-1,2,3-triazol-5-yl]acetyl} pyrrolidine-2-carboxamide]
IC50 [1]: 9 nM | IC50 [2]: 230 nM | IC50 [3]: > 100000 nM

Compound: O=C(N[C@@H](c1ccccc1)c1ccc(C2CC(F)(F)C2)c(F)n1)[C@@H]1C[C@@H](F)CN1C(=O)CNC(=O)N1CC(F)(F)C1 [Compound 512, (2S,4R)-1-{2-[(3,3-difluoroazetidine-1-carbonyl)amino]acetyl}-N-[(S)-[5-(3,3-difluorocyclobutyl)-6-fluoropyridin-2-yl](phenyl)methyl]-4-fluoropyrrolidine-2-carboxamide]
IC50 [1]: 15 nM | IC50 [2]: 290 nM | IC50 [3]: > 100000 nM

Compound: O=C(N[C@@H](c1ccccc1)c1ccc(C2CC(F)(F)C2)c(F)n1)[C@@H]1C[C@@H](F)CN1C(=O)Cn1nnnc1C(F)F [Compound 513, (2S,4R)-N-[(S)-[5-(3,3-difluorocyclobutyl)-6-fluoropyridin-2-yl](phenyl)methyl]-1-{2-[5-(difluoromethyl)-1H-1,2,3,4-tetrazol-1-yl]acetyl}-4-fluoropyrrolidine-2-carboxamide]
IC50 [1]: 14 nM | IC50 [2]: 220 nM | IC50 [3]: > 100000 nM

Compound: CCn1c(=O)ccn(CC(=O)N2C[C@H](F)C[C@H]2C(=O)N[C@@H](c2ccccc2)c2ccc(C3CC(F)(F)C3)c(F)n2)c1=O [Compound 515, (2S,4R)-N-[(S)-[5-(3,3-difluorocyclobutyl)-6-fluoropyridin-2-yl](phenyl)methyl]-1-[2-(3-ethyl-2,4-dioxo-l,2,3,4-tetrahydropyrimidin-1-yl)acetyl]-4-fluoropyrrolidine-2-carboxamide]
IC50 [1]: 4 nM | IC50 [2]: 100 nM | IC50 [3]: > 100000 nM

Compound: CCn1c(=O)c(C)cn(CC(=O)N2C[C@H](F)C[C@H]2C(=O)N[C@H](c2ccccc2)c2ccc(C3CC(F)(F)C3)c(F)n2)c1=O [Compound 518, (2S,4R)-N-[(R)-[5-(3,3-difluorocyclobutyl)-6-fluoropyridin-2-yl](phenyl)methyl]-1-[2-(3-ethyl-5-methyl-2,4-dioxo-1,2,3,4-tetrahydropyrimidin-1-yl)acetyl]-4-fluoropyrrolidine-2-carboxamide]
IC50 [1]: 1500 nM | IC50 [2]: 10700 nM | IC50 [3]: > 100000 nM

Compound: CN(C)C(=O)NCC(=O)N1C[C@H](F)C[C@H]1C(=O)N[C@@H](c1ccccc1)c1ccc(C2CC(F)(F)C2)cn1 [Compound 532, (2S,4R)—N—((S)-(5-(3,3-difluorocyclobutyl)pyridin-2-yl)(phenyl)methyl)-1-((dimethylcarbamoyl)glycyl)-4-fluoropyrrolidine-2-carboxamide]
IC50 [1]: 65 nM | IC50 [2]: 1180 nM | IC50 [3]: > 100000 nM

Compound: O=C(N[C@@H](c1ccccc1)c1ccc(C2CC(F)(F)C2)cn1)[C@@H]1C[C@@H](F)CN1C(=O)CNC(=O)N1CCC1 [Compound 533, (2S,4R)-1-{2-[(azetidine-1-carbonyl)amino]acetyl}-N-[(S)-[5-(3,3-difluorocyclobutyl)pyridin-2-yl](phenyl)methyl]-4-fluoropyrrolidine-2-carboxamide]
IC50 [1]: 43 nM | IC50 [2]: 1210 nM | IC50 [3]: > 100000 nM

Compound: O=C(N[C@@H](c1ccccc1)c1ccc(C2CC(F)(F)C2)cn1)[C@@H]1C[C@@H](F)CN1C(=O)Cc1cnn[nH]1 [Compound 534, (2S,4R)-N-[(S)-[5-(3,3-difluorocyclobutyl)pyridin-2-yl](phenyl)methyl]-4-fluoro-1-[2-(1H-1,2,3-triazol-5-yl)acetyl]pyrrolidine-2-carboxamide]
IC50 [1]: 57 nM | IC50 [2]: 1280 nM | IC50 [3]: > 100000 nM
